pIC50: −log10 of the molar value.

A short description of data set [1]: Solubility of the purified compounds in solvents. Type of data set: physicochemical.
In data set [2] the target is T1, mouse semaphorin 3A (Sema3A) (Mus musculus, UniProt O08665).
T1 sequence (O08665 21-772): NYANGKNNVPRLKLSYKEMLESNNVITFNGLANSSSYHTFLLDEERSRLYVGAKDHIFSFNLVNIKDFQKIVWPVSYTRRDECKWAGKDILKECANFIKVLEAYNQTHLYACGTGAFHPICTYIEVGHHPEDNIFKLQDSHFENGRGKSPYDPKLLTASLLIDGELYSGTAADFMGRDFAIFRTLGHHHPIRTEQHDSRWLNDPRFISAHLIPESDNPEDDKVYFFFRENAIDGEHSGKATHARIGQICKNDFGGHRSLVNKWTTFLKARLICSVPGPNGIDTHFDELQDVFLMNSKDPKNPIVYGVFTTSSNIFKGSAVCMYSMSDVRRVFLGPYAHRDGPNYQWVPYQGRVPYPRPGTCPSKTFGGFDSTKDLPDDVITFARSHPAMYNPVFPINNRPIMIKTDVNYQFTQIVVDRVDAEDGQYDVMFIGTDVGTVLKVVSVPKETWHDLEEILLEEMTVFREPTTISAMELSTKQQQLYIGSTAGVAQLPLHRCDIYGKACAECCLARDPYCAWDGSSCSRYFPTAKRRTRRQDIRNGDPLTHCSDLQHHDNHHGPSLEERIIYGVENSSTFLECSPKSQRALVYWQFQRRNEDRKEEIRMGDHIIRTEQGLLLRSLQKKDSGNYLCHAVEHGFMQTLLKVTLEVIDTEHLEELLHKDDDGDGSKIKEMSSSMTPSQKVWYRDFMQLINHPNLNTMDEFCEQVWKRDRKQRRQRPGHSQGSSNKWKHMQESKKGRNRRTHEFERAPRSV
Description: Suppressing action on the growth cone collapse activity of Sema3A in chick dorsal root ganglion culture. Type of data set: cell-based. As to conditions: E7 chick embryo dorsal root ganglions; compound added 1 hour before 3 units/ml mouse Sema3A; growth cone collapse rate after another 1 hour. From the text: The growth cone collapse activity of semaphorin described above means an activity to make growth cones disappear. This activity is observed after performing the following steps: cultivating nerve cells (generally tissue explants of ganglions) for a given period of time in vitro until the extended neurites as well as the growth cones at the edge of said neurites can be observed; and then adding thereto a given concentration (e.g. about 3 unit/ml; 1 unit/ml is defined as a semaphorin concentration in which 50% of the growth cones are collapsed) of semaphorin and cultivating for another given period of time (e.g. one hour). In order to get the extended neurites and the growth cones at the edge of said neurites ready for the observation, the nerve cells are generally cultivated for 10 to 20 hours in vitro, which duration can be altered according to a nerve variant and culture conditions. When the growth cone collapse caused by semaphorin is suppressed by, for example, the addition of a compound to this experimental system at an appropriate concentration about one hour prior to the addition of semaphorin, then such compound is regarded as a semaphorin inhibitor, especially as a compound with suppressing action on the growth cone collapse activity of semaphorin.
A 96-well plate (Sumitomo Bakelite Co., Ltd.) pre-coated with polylysine was further coated with laminine (20 μg/ml of laminine, for 1 hour at room temperature). Each well was added with 100 μl of medium (F12 medium containing 10% bovine fetal serum, 20 ng/ml of NGF, 100 units/ml of penicillin and 100 μg/ml of streptomycin) which medium was then inoculated with dorsal root nerve ganglions excised from E7 (Embryonic day 7) chick embryo and cultured for 16 to 20 hours under 5% CO2 at 37° C. Subsequently, the object compounds were added to media at various concentrations and 3 units/ml of mouse semaphorin 3A (Sema3A) was added after cultivating for 1 hour. The cultures were further incubated for another 1 hour. Glutaraldehyde was quickly added therein after said 1 hour to make the final concentration 1%. The cultures were then left for 15 minutes at room temperature so that the tissue sections were fixed, and collapse rates of the growth cones were microscopically determined. IC50 values was defined as a concentration of each compound at which concentration the collapse rate C equals to(A+B)/2, wherein (A) % is the collapse rate of growth cone of the negative control group (neither compounds nor Sema3A was added); (B) % is the collapse rate of growth cone of the positive control group (compounds were not added but Sema3A was added); and (C) % is the collapse rate of growth cone of the test group (each one compound and Sema3A were added).

Data set [3] has as its system semaphorin. Description: Semaphorin inhibitory activity (earlier finding of the inventors).
For data set [4], the system named is nerve regeneration. Put plainly: Nerve regeneration in vivo (earlier finding of the inventors).

`CC(=O)[C@]12c3c(cc(O)c(O)c3C(=O)O)OC[C@]13Cc1c(oc4cc(O)c(O)c(C(=O)O)c4c1=O)[C@H]2C(C)=C(O)C3=O` (relative stereo) [SPF-3059-16]: in data set [1], the “Solubility in DMSO” value is given as “soluble”, the Solubility in hexane result was “Insoluble”, the Solubility in methanol result is on record as “soluble” and the Solubility in water result is given as “Insoluble”. This compound also showed a pIC50 in data set [2] of 6.06.
Turning to `CC(=O)c1c(C)c(C(=O)C2COc3cc(O)c(O)c(C(=O)O)c3C2=O)cc2c(=O)c3c(C(=O)O)c(O)c(O)cc3oc12` (centres unmarked) [SPF-3059-1], the Semaphorin inhibitory activity entry in data set [3] is reported as “have semaphorin inhibitory activity”. The “Promotion of nerve regeneration” value in data set [4] is “promote nerve regeneration in vivo”.
Consider `Cc1cc(=O)c2c(o1)-c1c(c3c(c(O)c1C(=O)O)OC1(C)Cc4oc5cc(O)c(O)c(C(=O)O)c5c(=O)c4C3O1)OC2` (centres unmarked) [SPF-3059-8], for which, in data set [1], the “Solubility in DMSO” value is “soluble”, the Solubility in hexane result is given as “Insoluble”, the Solubility in methanol entry is reported as “soluble” and the Solubility in water entry is reported as “Insoluble”. In data set [2], this compound gave a pIC50 of 5.46.
On to `CC1=Cc2oc3cc(O)c(O)c(C(=O)O)c3c(=O)c2C(c2c(C)oc3c(c2=O)COc2cc(O)c(O)c(C(=O)O)c2-3)O1` (centres unmarked) [SPF-3059-17], for which, in data set [1], the “Solubility in DMSO” value was “soluble”, the Solubility in hexane result is “Insoluble”, the Solubility in methanol result is “soluble” and the Solubility in water entry was “Insoluble”. This compound had a pIC50 in data set [2] of 6.65.
Take `CC12Cc3oc4cc(O)c(O)c(C(=O)O)c4c(=O)c3C(O1)C1C(=O)C3=C(OC1(C)O2)c1c(cc(O)c(O)c1C(=O)O)OC3` (centres unmarked) [SPF-3059-19]: in data set [1], the “Solubility in DMSO” value is given as “soluble”, the Solubility in hexane entry is recorded as “Insoluble”, the Solubility in methanol entry is listed as “soluble” and the Solubility in water entry is reported as “Insoluble”. In data set [2], the pIC50 is 6.08.
Turning to `CC(=O)c1c(C)c(C(=O)c2coc3cc(O)c(O)c(C(=O)O)c3c2=O)cc2c(=O)c3c(O)cc(O)c(O)c3oc12` [SPF-3059-22], in data set [1], the “Solubility in DMSO” value is “soluble”, the Solubility in hexane entry is given as “Insoluble”, the Solubility in methanol entry is given as “soluble” and the Solubility in water entry is on record as “Insoluble”. Besides, the negative-log IC50 (pIC50) in data set [2] was 6.04.
On to `CC(=O)c1cc(-c2c(C(C)=O)cc3c(=O)c4c(C(=O)O)c(O)c(O)cc4oc3c2C(C)=O)cc(C(=O)c2c(O)cc(O)c(O)c2C(=O)O)c1O` [SPF-3059-23], for which, in data set [1], the “Solubility in DMSO” value was “soluble”, the Solubility in hexane entry is “Insoluble”, the Solubility in methanol result was “soluble” and the Solubility in water result was “Insoluble”. Also, the pIC50 in data set [2] is 6.14.
With `CC(=O)c1c2c(c3ccc4c(=O)c5c(C(=O)O)c(O)c(O)cc5oc4c3c1C)C(=O)C1(CC2)COc2cc(O)c(O)c(C(=O)O)c2C1=O` (centres unmarked) [SPF-3059-38], in data set [1], the “Solubility in DMSO” value is given as “soluble”, the Solubility in hexane entry is recorded as “Insoluble”, the Solubility in methanol entry is “soluble” and the Solubility in water result is listed as “Insoluble”. This compound also gave a negative logarithm of the IC50 (pIC50) in data set [2] of 7.70.
Turning to `CC(=O)C1=C2c3cc(O)c(O)cc3OCC2(C(=O)/C=C(/C)O)Cc2c1oc1cc(O)c(O)c(C(=O)O)c1c2=O` (centres unmarked) [SPF-3059-40], in data set [1], the “Solubility in DMSO” value is on record as “soluble”, the Solubility in hexane entry is recorded as “Insoluble”, the Solubility in methanol entry was “soluble” and the Solubility in water entry was “Insoluble”. Besides, the negative-log IC50 (pIC50) in data set [2] is 6.63.
In the case of `CC(=O)c1c(C)c(-c2oc3cc(O)c(O)c(C(=O)O)c3c(=O)c2Cc2c(C)oc3c(c2=O)COc2cc(O)c(O)c(C(=O)O)c2-3)cc2c(=O)c3cc(O)c(O)cc3oc12` [SPF-3059-42], in data set [1], the “Solubility in DMSO” value is “soluble”, the Solubility in hexane entry is listed as “Insoluble”, the Solubility in methanol entry was “soluble” and the Solubility in water entry is “Insoluble”. The compound further had a pIC50 in data set [2] of 7.11.

Usually pIC50 stands for −log10 of the IC50, conventionally taken in molar units. A lower pIC50 goes with a high IC50.

The values above are taken from patent publication US7642362B2, “Compounds as semaphorin inhibitors” (Dainippon Sumitomo Pharma Co., Ltd., priority 2002, dated 2010).
